Assay results reported in US10456407B2, “Combination therapy for treating cancer” (Epizyme, Inc., priority 2015, dated 2019).

What was measured:
Format in all cases: cell-based
SU-DHL10 cells = assay: RT2 Glucocorticoid signaling PCR array, SU-DHL10 (SUDHL10) cell line (Table 4d); settings: SUDHL10, 4 days, vs DMSO
OCI-Ly19 cells [1] = assay: RT2 Glucocorticoid signaling PCR array, OCI-LY19 (Table 4a, printed OCT) cell line; settings: vs DMSO
Source text: (§1) Expression levels of (A). Sestrin; (B). TNF and (C) GILZ normalized to DMSO controls for each cell line with the indicated single agent or combination.

OCI-Ly19 cells [2] = assay: as above; settings: vs DMSO; remark: listed apart in the source
SU-DHL4 cells = assay: RT2 Glucocorticoid signaling PCR array, SU-DHL4 (SUDHL4) cell line (Table 4f); settings: SUDHL4, 4 days, vs DMSO
Source text: as §1

C[C@]12C=CC(=O)C=C1CC[C@@H]1[C@@H]2[C@@H](O)C[C@@]2(C)[C@H]1CC[C@]2(O)C(=O)CO [Prednisolone, prednisolone]
AFF1 ΔΔCT (SU-DHL10 cells): −0.106 | AMPD3 ΔΔCT (SU-DHL10 cells): −0.327 | ANGPTL4 ΔΔCT (SU-DHL10 cells): −0.105 | ANXA4 ΔΔCT (SU-DHL10 cells): −0.001 | ATF4 ΔΔCT (SU-DHL10 cells): 1.570 | BCL6 ΔΔCT (SU-DHL10 cells): 1.067 | CEBPB ΔΔCT (SU-DHL10 cells): 2.427 | CREB1 ΔΔCT (SU-DHL10 cells): 0.028 | CREB3L4 ΔΔCT (SU-DHL10 cells): 1.120 | CREB3 ΔΔCT (SU-DHL10 cells): −0.098 | CYB561 ΔΔCT (SU-DHL10 cells): 0.164 | DUSP1 ΔΔCT (SU-DHL10 cells): −0.719 | EHD3 ΔΔCT (SU-DHL10 cells): −0.272 | FK8PS ΔΔCT (SU-DHL10 cells): −1.599 | FOSL2 ΔΔCT (SU-DHL10 cells): −1.511 | GDPD1 ΔΔCT (SU-DHL10 cells): −0.938 | GOT1 ΔΔCT (SU-DHL10 cells): 0.781 | HNRPLL ΔΔCT (SU-DHL10 cells): 0.492 | KLF9 ΔΔCT (SU-DHL10 cells): −1.904 | KLF13 ΔΔCT (SU-DHL10 cells): −2.191 | MT2A ΔΔCT (SU-DHL10 cells): 1.837 | NFKBIA ΔΔCT (SU-DHL10 cells): 0.069 | PDCD7 ΔΔCT (SU-DHL10 cells): 0.428 | PDP1 ΔΔCT (SU-DHL10 cells): 0.512 | PER1 ΔΔCT (SU-DHL10 cells): −0.675 | PIK3R1 ΔΔCT (SU-DHL10 cells): −0.040 | PLEKHF1 ΔΔCT (SU-DHL10 cells): −0.326 | POU2F1 ΔΔCT (SU-DHL10 cells): −0.060 | POU2F2 ΔΔCT (SU-DHL10 cells): −2.104 | RA5A3 ΔΔCT (SU-DHL10 cells): 0.050 | RGS2 ΔΔCT (SU-DHL10 cells): 1.368 | RHOB ΔΔCT (SU-DHL10 cells): 0.157 | SESN1 ΔΔCT (SU-DHL10 cells): −3.413 | SGK1 ΔΔCT (SU-DHL10 cells): 0.975 | SLC10A6 ΔΔCT (SU-DHL10 cells): −1.545 | SLC19A2 ΔΔCT (SU-DHL10 cells): 1.693 | SLC22A5 ΔΔCT (SU-DHL10 cells): 1.923 | SNTA1 ΔΔCT (SU-DHL10 cells): −0.066 | SPSB1 ΔΔCT (SU-DHL10 cells): −0.629 | STAT5A ΔΔCT (SU-DHL10 cells): 0.381 | TBL1XR1 ΔΔCT (SU-DHL10 cells): 0.105 | TNFAIP3 ΔΔCT (SU-DHL10 cells): 0.950 | TSC22D3 ΔΔCT (SU-DHL10 cells): −1.509 | USP2 ΔΔCT (SU-DHL10 cells): −0.292 | USPS4 ΔΔCT (SU-DHL10 cells): 0.041 | VLDLR ΔΔCT (SU-DHL10 cells): 4.597 | ZFP36 ΔΔCT (SU-DHL10 cells): −0.420 | ZHX3 ΔΔCT (SU-DHL10 cells): 0.027 | ZNF281 ΔΔCT (SU-DHL10 cells): −0.465 | ΔΔCT, AFF1 (OCI-Ly19 cells [1]; gene AFF1): −0.304 | ΔΔCT, AMPD3 (OCI-Ly19 cells [1]; gene AMPD3): −0.109 | ΔΔCT, ANXA4 (OCI-Ly19 cells [1]; gene ANXA4): 0.189 | ΔΔCT, CEBPA (OCI-Ly19 cells [1]; gene CEBPA): 0.031 | ΔΔCT, CREB1 (OCI-Ly19 cells [1]; gene CREB1): 0.060 | ΔΔCT, CREB3 (OCI-Ly19 cells [1]; gene CREB3): −0.156 | ΔΔCT, GHRHR (OCI-Ly19 cells [1]; gene GHRHR): −2.603 | ΔΔCT, GOT1 (OCI-Ly19 cells [1]; gene GOT1): 0.094 | ΔΔCT, PER1 (OCI-Ly19 cells [1]; gene PER1): 0.263 | ΔΔCT, RGS2 (OCI-Ly19 cells [1]; gene RGS2): 0.390 | ΔΔCT, SPSB1 (OCI-Ly19 cells [1]; gene SPSB1): 0.387 | ΔΔCT, TBL1XR1 (OCI-Ly19 cells [1]; gene TBL1XR1): −0.234 | ΔΔCT, TNF (OCI-Ly19 cells [1]; gene TNF): −0.773 | ΔΔCT, VLDLR (OCI-Ly19 cells [1]; gene VLDLR): 0.081 | ΔΔCT, ADARB1 (OCI-Ly19 cells [2]; gene ADARB1): −0.049 | ΔΔCT, AK2 (OCI-Ly19 cells [2]; gene AK2): −0.063 | ΔΔCT, ANGPTL4 (OCI-Ly19 cells [2]; gene ANGPTL4): −0.754 | ΔΔCT, ARID68 (OCI-Ly19 cells [2]; gene ARID68): −0.079 | ΔΔCT, ASPH (OCI-Ly19 cells [2]; gene ASPH): 0.346 | ΔΔCT, ATF4 (OCI-Ly19 cells [2]; gene ATF4): 0.456 | ΔΔCT, BCL6 (OCI-Ly19 cells [2]; gene BCL6): 0.239 | ΔΔCT, CEBPB (OCI-Ly19 cells [2]; gene CEBPB): 0.686 | ΔΔCT COL4A2 (OCI-Ly19 cells [2]; gene COL4A2): 1.601 | ΔΔCT, CREB3L4 (OCI-Ly19 cells [2]; gene CREB3L4): 0.152 | ΔΔCT CTGF (OCI-Ly19 cells [2]; gene CTGF): −1.080 | ΔΔCT, DDIT4 (OCI-Ly19 cells [2]; gene DDIT4): −1.173 | ΔΔCT, DUSP1 (OCI-Ly19 cells [2]; gene DUSP1): 0.164 | ΔΔCT, EHD3 (OCI-Ly19 cells [2]; gene EHD3): −0.773 | ΔΔCT, FK8PS (OCI-Ly19 cells [2]; gene FK8PS): −0.873 | ΔΔCT, FOSL2 (OCI-Ly19 cells [2]; gene FOSL2): −0.480 | ΔΔCT, GDPD1 (OCI-Ly19 cells [2]; gene GDPD1): 1.130 | ΔΔCT GLUL (OCI-Ly19 cells [2]; gene GLUL): −0.090 | ΔΔCT, H6PD (OCI-Ly19 cells [2]; gene H6PD): −0.483 | ΔΔCT, HNRPLL (OCI-Ly19 cells [2]; gene HNRPLL): −0.156 | ΔΔCT, KLF9 (OCI-Ly19 cells [2]; gene KLF9): −1.571 | ΔΔCT, KLF13 (OCI-Ly19 cells [2]; gene KLF13): −0.075 | ΔΔCT, LOX (OCI-Ly19 cells [2]; gene LOX): −1.179 | ΔΔCT MERTK (OCI-Ly19 cells [2]; gene MERTK): −0.277 | ΔΔCT MTZA (OCI-Ly19 cells [2]; gene MTZA): −0.169 | ΔΔCT, NFKBIA (OCI-Ly19 cells [2]; gene NFKBIA): 0.043 | ΔΔCT, NR3C1 (OCI-Ly19 cells [2]; gene NR3C1): −0.286 | ΔΔCT PDCC7 (OCI-Ly19 cells [2]; gene PDCC7): 4.571 | ΔΔCT PDGFRB (OCI-Ly19 cells [2]; gene PDGFRB): −2.242 | ΔΔCT, PDP1 (OCI-Ly19 cells [2]; gene PDP1): −0.422 | ΔΔCT, PIK3R1 (OCI-Ly19 cells [2]; gene PIK3R1): −0.119 | ΔΔCT, PLEKHF1 (OCI-Ly19 cells [2]; gene PLEKHF1): 0.139 | ΔΔCT, POU2F1 (OCI-Ly19 cells [2]; gene POU2F1): 0.048 | ΔΔCT, POU2F2 (OCI-Ly19 cells [2]; gene POU2F2): −0.574 | ΔΔCT, RASA3 (OCI-Ly19 cells [2]; gene RASA3): 0.009 | ΔΔCT, RHOB (OCI-Ly19 cells [2]; gene RHOB): −1.763 | ΔΔCT, SESN1 (OCI-Ly19 cells [2]; gene SESN1): 0.041 | ΔΔCT, SGK1 (OCI-Ly19 cells [2]; gene SGK1): −1.154 | ΔΔCT, SLC10A6 (OCI-Ly19 cells [2]; gene SLC10A6): −0.369 | ΔΔCT, SLC19A2 (OCI-Ly19 cells [2]; gene SLC19A2): 0.410 | ΔΔCT, SLC22A5 (OCI-Ly19 cells [2]; gene SLC22A5): 0.236 | ΔΔCT, SNTA1 (OCI-Ly19 cells [2]; gene SNTA1): 0.119 | ΔΔCT, SPHK1 (OCI-Ly19 cells [2]; gene SPHK1): 0.022 | ΔΔCT, STAT5A (OCI-Ly19 cells [2]; gene STAT5A): −0.064 | ΔΔCT, STAT5B (OCI-Ly19 cells [2]; gene STAT5B): 0.330 | ΔΔCT, TNFAIP3 (OCI-Ly19 cells [2]; gene TNFAIP3): 0.250 | ΔΔCT, TSC22D3 (OCI-Ly19 cells [2]; gene TSC22D3): −1.695 | ΔΔCT, USP2 (OCI-Ly19 cells [2]; gene USP2): −0.585 | ΔΔCT, USPS4 (OCI-Ly19 cells [2]; gene USPS4): 0.286 | ΔΔCT, VDR (OCI-Ly19 cells [2]; gene VDR): −0.730 | ΔΔCT, ZHX3 (OCI-Ly19 cells [2]; gene ZHX3): −0.730 | ΔΔCT, ZNF281 (OCI-Ly19 cells [2]; gene ZNF281): 0.871 | ΔΔCT, BCL6 (SU-DHL4 cells): −0.793 | ΔΔCT, CEBPB (SU-DHL4 cells): 0.528 | ΔΔCT, DDIT4 (SU-DHL4 cells): −1.931 | ΔΔCT, DUSP1 (SU-DHL4 cells): −1.093 | ΔΔCT, NFKBIA (SU-DHL4 cells): −0.710 | ΔΔCT, PDP1 (SU-DHL4 cells): −0.521 | ΔΔCT, POU2F2 (SU-DHL4 cells): −0.675 | ΔΔCT, RASA3 (SU-DHL4 cells): −0.723 | ΔΔCT, SPHK1 (SU-DHL4 cells): 0.331 | ΔΔCT, STAT5A (SU-DHL4 cells): −0.389 | ΔΔCT, TNF (SU-DHL4 cells): −2.845 | ΔΔCT, VDR (SU-DHL4 cells): −0.996 | ΔΔCT, VLDLR (SU-DHL4 cells): 1.191 | ΔΔCT, ZNF281 (SU-DHL4 cells): −0.739
